# Laboratory results: paper PMC11345841, “Exploring 2-Sulfonylpyrimidine Warheads as Acrylamide Surrogates for Targeted Covalent Inhibition: A BTK Story” (Journal of Medicinal Chemistry, 2024)
# Where two headings read alike, the source gives them in different places.
# Experiments:
# Test in all cases: KINOMEscan ScanTK
# Type in all cases: binding
# [1] = molecular target: T1, ABL1(F317I)-phosphorylated (Homo sapiens, UniProt P00519, F317I)
# T1 construct: purchased Eurofins DiscoverX KINOMEscan (scanTK)
# [2] = molecular target: T2, ABL1(T315I)-nonphosphorylated (Homo sapiens, UniProt P00519, T315I)
# T2 construct: purchased Eurofins DiscoverX KINOMEscan (scanTK)
# EGFR = molecular target: T3, EGFR (Homo sapiens, UniProt P00533)
# T3 construct: purchased Eurofins DiscoverX KINOMEscan (scanTK)
# EGFR(E746-A750del) = molecular target: T4, EGFR(E746-A750del) (Homo sapiens, UniProt P00533, DEL746-750)
# T4 construct: purchased Eurofins DiscoverX KINOMEscan (scanTK)
# [3] = molecular target: T5, EGFR(L747-S752del, P753S) (Homo sapiens, UniProt P00533, DEL747-752/P753S)
# T5 construct: purchased Eurofins DiscoverX KINOMEscan (scanTK)
# EGFR(L858R,T790M) = molecular target: T6, EGFR(L858R,T790M) (Homo sapiens, UniProt P00533, L858R/T790M)
# T6 construct: purchased Eurofins DiscoverX KINOMEscan (scanTK)
# FAK = molecular target: T7, FAK (Homo sapiens, UniProt Q05397)
# T7 construct: purchased Eurofins DiscoverX KINOMEscan (scanTK)
# INSRR = molecular target: T8, INSRR (Homo sapiens, UniProt P14616)
# T8 construct: purchased Eurofins DiscoverX KINOMEscan (scanTK)
# ITK = molecular target: T9, ITK (Homo sapiens, UniProt Q08881)
# T9 construct: purchased Eurofins DiscoverX KINOMEscan (scanTK)
# T9 sequence (Q08881 1-620): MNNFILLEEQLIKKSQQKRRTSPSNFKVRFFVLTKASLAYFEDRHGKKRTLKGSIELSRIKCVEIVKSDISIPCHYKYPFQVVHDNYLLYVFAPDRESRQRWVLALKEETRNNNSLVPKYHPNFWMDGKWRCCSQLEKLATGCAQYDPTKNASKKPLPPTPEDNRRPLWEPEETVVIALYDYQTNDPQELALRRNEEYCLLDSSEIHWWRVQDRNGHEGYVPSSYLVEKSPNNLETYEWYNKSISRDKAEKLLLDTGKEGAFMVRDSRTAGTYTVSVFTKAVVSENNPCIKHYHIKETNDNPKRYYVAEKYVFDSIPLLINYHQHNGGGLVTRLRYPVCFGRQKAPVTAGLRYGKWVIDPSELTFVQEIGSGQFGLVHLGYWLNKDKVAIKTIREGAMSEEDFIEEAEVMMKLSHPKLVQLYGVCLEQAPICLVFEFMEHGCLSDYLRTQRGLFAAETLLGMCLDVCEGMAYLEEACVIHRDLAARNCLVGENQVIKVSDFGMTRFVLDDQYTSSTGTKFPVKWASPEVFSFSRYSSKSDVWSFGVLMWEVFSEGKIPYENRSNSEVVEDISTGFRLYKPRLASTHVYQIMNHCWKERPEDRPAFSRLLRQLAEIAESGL
# [4] = molecular target: T10, JAK1(JH1domain-catalytic) (Homo sapiens, UniProt P23458)
# T10 construct: JAK1(JH1domain-catalytic); purchased Eurofins DiscoverX KINOMEscan (scanTK)
# [5] = molecular target: T11, JAK1(JH2domain-pseudokinase) (Homo sapiens, UniProt P23458)
# T11 construct: JAK1(JH2domain-pseudokinase); purchased Eurofins DiscoverX KINOMEscan (scanTK)
# [6] = molecular target: T12, JAK2(JH1domain-catalytic) (Homo sapiens, UniProt O60674)
# T12 construct: JAK2(JH1domain-catalytic); purchased Eurofins DiscoverX KINOMEscan (scanTK)
# KIT(D816V) = molecular target: T13, KIT(D816V) (Homo sapiens, UniProt P10721, D816V)
# T13 construct: purchased Eurofins DiscoverX KINOMEscan (scanTK)
# KIT(L576P) = molecular target: T14, KIT(L576P) (Homo sapiens, UniProt P10721, L576P)
# T14 construct: purchased Eurofins DiscoverX KINOMEscan (scanTK)
# KIT-autoinhibited = molecular target: T15, KIT-autoinhibited (Homo sapiens, UniProt P10721)
# T15 construct: purchased Eurofins DiscoverX KINOMEscan (scanTK)
# PDGFRB = molecular target: T16, PDGFRB (Homo sapiens, UniProt P09619)
# T16 construct: purchased Eurofins DiscoverX KINOMEscan (scanTK)
# SRMS = molecular target: T17, SRMS (Homo sapiens, UniProt Q9H3Y6); details: SRMS
# T17 construct: purchased Eurofins DiscoverX KINOMEscan (scanTK)
# SYK = molecular target: T18, SYK (Homo sapiens, UniProt P43405)
# T18 construct: purchased Eurofins DiscoverX KINOMEscan (scanTK)
# YES = molecular target: T19, YES (Homo sapiens, UniProt P07947)
# T19 construct: purchased Eurofins DiscoverX KINOMEscan (scanTK)
# T5 sequence (P00533 with tags, fused parts or gaps DEL747-752/P753S limits assumed): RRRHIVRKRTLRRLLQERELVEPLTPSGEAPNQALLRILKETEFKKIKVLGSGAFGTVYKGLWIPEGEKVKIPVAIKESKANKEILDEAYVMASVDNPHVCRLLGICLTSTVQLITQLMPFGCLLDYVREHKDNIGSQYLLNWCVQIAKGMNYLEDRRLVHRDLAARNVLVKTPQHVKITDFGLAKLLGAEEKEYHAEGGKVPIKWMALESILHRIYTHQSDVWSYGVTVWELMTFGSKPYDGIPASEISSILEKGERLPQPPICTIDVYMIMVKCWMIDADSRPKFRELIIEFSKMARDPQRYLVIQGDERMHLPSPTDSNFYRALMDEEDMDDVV
# T4 sequence (P00533 with tags, fused parts or gaps DEL746-750 limits assumed): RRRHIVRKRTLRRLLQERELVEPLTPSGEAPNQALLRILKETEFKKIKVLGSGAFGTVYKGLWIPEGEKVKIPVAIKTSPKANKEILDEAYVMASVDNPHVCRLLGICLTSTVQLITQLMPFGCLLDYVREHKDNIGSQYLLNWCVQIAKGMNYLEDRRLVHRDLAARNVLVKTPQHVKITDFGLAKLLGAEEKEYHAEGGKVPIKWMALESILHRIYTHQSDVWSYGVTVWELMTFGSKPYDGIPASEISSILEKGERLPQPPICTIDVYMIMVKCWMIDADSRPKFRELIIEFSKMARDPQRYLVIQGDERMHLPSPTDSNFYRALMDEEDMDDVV
# T6 sequence (P00533 25-1210 T790M/L858R): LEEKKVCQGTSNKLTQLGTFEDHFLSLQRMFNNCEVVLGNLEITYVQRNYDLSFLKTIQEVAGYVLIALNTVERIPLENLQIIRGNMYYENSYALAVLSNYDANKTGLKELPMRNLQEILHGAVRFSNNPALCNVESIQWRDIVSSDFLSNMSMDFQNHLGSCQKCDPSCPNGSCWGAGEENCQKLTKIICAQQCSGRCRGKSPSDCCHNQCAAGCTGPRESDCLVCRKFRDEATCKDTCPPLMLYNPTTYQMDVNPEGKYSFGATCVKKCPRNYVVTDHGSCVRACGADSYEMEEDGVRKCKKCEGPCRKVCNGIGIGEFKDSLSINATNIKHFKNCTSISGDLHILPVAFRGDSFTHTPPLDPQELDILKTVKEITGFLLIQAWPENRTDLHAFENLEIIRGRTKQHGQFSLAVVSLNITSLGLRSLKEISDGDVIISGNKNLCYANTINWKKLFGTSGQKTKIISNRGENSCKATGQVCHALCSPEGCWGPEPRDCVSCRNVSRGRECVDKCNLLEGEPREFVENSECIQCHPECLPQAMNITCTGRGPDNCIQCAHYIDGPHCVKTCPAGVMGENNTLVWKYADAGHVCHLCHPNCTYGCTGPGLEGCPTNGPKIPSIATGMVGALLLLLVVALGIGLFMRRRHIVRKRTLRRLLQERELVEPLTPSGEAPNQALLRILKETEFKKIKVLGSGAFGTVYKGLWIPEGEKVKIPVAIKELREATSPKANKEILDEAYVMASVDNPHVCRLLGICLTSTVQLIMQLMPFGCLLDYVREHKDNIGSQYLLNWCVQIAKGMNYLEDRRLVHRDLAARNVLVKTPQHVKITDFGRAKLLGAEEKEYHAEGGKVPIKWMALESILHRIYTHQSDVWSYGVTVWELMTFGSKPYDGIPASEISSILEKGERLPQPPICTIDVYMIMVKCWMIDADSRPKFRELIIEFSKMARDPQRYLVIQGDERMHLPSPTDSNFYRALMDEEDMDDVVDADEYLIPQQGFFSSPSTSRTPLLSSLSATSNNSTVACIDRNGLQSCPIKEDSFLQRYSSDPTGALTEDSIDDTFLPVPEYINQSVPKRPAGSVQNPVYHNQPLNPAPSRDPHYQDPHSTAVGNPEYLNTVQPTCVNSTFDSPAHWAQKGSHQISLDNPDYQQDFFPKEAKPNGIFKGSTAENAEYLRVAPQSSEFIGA
# T8 sequence (P14616 27-1297): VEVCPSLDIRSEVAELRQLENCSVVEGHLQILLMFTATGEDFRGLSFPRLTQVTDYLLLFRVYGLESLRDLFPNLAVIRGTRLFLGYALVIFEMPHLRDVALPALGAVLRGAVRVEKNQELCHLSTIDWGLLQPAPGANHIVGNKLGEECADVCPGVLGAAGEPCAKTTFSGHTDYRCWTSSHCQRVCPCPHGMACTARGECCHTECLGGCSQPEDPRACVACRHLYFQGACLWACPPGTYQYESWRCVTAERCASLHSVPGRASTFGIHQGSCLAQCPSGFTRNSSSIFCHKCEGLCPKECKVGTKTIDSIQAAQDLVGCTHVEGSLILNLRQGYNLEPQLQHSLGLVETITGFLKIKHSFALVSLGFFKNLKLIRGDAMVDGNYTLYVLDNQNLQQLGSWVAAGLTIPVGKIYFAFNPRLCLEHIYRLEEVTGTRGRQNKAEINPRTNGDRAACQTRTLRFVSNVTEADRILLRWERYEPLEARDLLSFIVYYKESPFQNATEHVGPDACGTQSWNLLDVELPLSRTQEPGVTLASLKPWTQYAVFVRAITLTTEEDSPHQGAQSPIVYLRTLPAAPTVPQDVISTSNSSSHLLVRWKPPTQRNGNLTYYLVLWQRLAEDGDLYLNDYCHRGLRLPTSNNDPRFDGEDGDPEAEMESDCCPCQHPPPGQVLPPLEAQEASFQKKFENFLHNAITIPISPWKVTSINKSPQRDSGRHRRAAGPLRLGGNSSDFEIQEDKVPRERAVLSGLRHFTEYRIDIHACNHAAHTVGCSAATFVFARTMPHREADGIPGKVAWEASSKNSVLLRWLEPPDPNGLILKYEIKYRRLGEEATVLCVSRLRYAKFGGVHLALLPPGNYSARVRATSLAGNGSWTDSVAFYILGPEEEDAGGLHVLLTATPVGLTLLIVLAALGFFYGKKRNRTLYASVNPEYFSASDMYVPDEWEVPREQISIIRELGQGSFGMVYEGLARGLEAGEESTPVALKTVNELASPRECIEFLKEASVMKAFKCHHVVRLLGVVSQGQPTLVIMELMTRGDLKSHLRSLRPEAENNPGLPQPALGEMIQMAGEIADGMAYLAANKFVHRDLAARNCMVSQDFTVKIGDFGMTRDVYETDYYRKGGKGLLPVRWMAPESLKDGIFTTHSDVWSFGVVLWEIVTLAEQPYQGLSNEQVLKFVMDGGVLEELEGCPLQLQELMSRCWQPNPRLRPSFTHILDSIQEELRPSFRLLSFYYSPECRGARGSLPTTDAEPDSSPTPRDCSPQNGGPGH
# T12 sequence (O60674 849-1132 limits assumed): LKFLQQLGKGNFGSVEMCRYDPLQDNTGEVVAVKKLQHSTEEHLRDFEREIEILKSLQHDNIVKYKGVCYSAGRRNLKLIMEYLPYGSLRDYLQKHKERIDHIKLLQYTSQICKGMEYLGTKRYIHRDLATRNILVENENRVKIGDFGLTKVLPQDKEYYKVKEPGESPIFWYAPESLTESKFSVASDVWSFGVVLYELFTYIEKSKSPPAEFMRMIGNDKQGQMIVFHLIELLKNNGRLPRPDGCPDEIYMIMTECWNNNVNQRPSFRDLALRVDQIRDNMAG
# T7 sequence (Q05397 whole entry): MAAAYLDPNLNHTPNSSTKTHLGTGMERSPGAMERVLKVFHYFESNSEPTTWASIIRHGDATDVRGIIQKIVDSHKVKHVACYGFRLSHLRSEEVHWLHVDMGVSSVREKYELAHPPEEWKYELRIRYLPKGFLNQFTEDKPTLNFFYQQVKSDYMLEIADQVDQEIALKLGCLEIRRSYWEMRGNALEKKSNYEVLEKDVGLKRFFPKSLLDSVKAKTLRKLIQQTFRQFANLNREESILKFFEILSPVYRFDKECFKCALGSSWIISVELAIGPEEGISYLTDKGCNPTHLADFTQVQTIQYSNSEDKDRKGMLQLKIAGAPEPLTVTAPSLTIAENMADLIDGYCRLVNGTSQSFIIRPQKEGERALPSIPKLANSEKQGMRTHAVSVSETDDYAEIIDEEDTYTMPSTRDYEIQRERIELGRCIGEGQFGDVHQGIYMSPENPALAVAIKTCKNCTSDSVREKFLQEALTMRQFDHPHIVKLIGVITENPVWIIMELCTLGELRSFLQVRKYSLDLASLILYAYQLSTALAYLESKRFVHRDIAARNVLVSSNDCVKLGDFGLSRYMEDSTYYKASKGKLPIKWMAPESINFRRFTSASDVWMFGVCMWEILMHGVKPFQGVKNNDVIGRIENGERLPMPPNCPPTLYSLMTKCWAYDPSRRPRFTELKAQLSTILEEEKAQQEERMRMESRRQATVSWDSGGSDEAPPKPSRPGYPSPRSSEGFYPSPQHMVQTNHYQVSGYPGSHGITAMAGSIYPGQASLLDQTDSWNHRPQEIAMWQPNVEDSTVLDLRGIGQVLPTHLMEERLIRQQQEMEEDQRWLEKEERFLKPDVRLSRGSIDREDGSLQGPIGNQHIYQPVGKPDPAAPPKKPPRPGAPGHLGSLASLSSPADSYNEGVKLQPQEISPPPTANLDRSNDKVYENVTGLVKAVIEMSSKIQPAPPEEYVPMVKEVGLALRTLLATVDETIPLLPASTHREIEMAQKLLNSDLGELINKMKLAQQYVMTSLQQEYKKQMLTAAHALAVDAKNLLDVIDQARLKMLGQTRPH
# T11 sequence (P23458 583-855 limits assumed): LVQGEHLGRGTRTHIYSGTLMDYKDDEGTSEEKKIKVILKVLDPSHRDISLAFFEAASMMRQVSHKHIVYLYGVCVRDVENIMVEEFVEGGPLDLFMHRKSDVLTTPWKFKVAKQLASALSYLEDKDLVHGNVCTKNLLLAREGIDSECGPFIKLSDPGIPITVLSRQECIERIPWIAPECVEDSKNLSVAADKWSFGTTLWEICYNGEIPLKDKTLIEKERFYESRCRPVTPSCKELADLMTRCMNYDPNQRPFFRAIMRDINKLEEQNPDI
# T10 sequence (P23458 875-1154 limits assumed): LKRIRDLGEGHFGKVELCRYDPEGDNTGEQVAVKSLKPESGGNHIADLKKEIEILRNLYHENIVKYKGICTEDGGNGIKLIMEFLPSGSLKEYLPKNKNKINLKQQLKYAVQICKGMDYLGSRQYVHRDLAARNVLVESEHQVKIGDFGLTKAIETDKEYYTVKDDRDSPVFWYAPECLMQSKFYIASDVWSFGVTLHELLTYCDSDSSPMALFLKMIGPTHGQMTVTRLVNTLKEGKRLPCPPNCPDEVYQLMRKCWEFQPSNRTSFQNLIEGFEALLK
smiles,measurement,setting,value
"CCOC(=O)c1cnc(S(C)(=O)=O)nc1N1CCC[C@@H](n2nc(-c3ccc(Oc4ccccc4)cc3)c3c(N)ncnc32)C1 [Compound 8c, Ethyl (R)-4-(3-(4-Amino-3-(4-phenoxyphenyl)-1H-pyrazolo[3,4-d]pyrimidin-1-yl)piperidin-1-yl)-2-(methylsulfonyl)pyrimidine-5-carboxylate]",difference in %Control from reference compound Ib at 1 µM,[1]; @1000nM,15%
same,remaining binding at 1 µM,"[1]; @1000nM, read-out: %Control",88%
same,remaining binding at 1 µM,[1]; read-out: %Control @1000nM,88%
same,difference in % of control versus compound Ib at 1 µM,[2]; @1000nM,-9%
same,remaining binding at 1 µM,"[2]; @1000nM, read-out: %Control",84%
same,remaining binding at 1 µM,[2]; read-out: %Control @1000nM,84%
same,difference in %Control versus reference compound Ib at 1 µM,"EGFR; @1000nM, EGFR",42.8%
same,remaining binding at 1 µM,"EGFR; @1000nM, EGFR, read-out: %Control",43%
same,remaining binding at 1 µM,"EGFR; EGFR, read-out: %Control @1000nM",43%
same,inhibition at 1 µM,"EGFR; ScanTK, 1 μM, WT EGFR",57%
same,difference in %Control from reference compound Ib at 1 µM,EGFR(E746-A750del); @1000nM,89%
same,remaining binding at 1 µM,"EGFR(E746-A750del); @1000nM, read-out: %Control",100%
same,remaining binding at 1 µM,EGFR(E746-A750del); read-out: %Control @1000nM,100%
same,difference in %Control versus compound Ib at 1 µM,[3]; @1000nM,94.5%
same,remaining binding at 1 µM,"[3]; @1000nM, read-out: %Control",100%
same,remaining binding at 1 µM,[3]; read-out: %Control @1000nM,100%
same,difference in % of control versus compound Ib at 1 µM,"EGFR(L858R,T790M); @1000nM",77%
same,remaining binding at 1 µM,"EGFR(L858R,T790M); @1000nM, read-out: %Control",87%
same,remaining binding at 1 µM,"EGFR(L858R,T790M); read-out: %Control @1000nM",87%
same,difference in %Control versus compound Ib at 1 µM,FAK; @1000nM,-4%
same,remaining binding at 1 µM,"FAK; @1000nM, read-out: %Control",96%
same,remaining binding at 1 µM,FAK; read-out: %Control @1000nM,96%
same,difference in %Control versus compound Ib at 1 µM,INSRR; @1000nM,-9%
same,remaining binding at 1 µM,"INSRR; @1000nM, read-out: %Control",87%
same,remaining binding at 1 µM,INSRR; read-out: %Control @1000nM,87%
same,difference in %Control versus compound Ib at 1 µM,"ITK; @1000nM, ITK",73%
same,remaining binding at 1 µM,"ITK; @1000nM, ITK, read-out: %Control",88%
same,remaining binding at 1 µM,"ITK; ITK, read-out: %Control @1000nM",88%
same,inhibition at 1 µM,"ITK; ScanTK, 1 μM",12%
same,difference in %Control versus compound Ib at 1 µM,[4]; @1000nM,6%
same,remaining binding at 1 µM,"[4]; @1000nM, read-out: %Control",100%
same,remaining binding at 1 µM,[4]; read-out: %Control @1000nM,100%
same,%Control difference versus compound Ib at 1 µM,[5]; @1000nM,4%
same,remaining binding at 1 µM,"[5]; @1000nM, read-out: %Control",99%
same,remaining binding at 1 µM,[5]; read-out: %Control @1000nM,99%
same,difference in %Control vs compound Ib at 1 µM,[6]; @1000nM,-17%
same,remaining binding at 1 µM,"[6]; @1000nM, read-out: %Control",83%
same,remaining binding at 1 µM,[6]; read-out: %Control @1000nM,83%
same,remaining binding at 1 µM,"KIT(D816V); @1000nM, read-out: %Control",85%
same,remaining binding at 1 µM,KIT(D816V); read-out: %Control @1000nM,85%
same,difference in %Control versus Ib at 1 µM,"KIT(L576P); @1000nM, read-out: % difference (compound - Ib %Control)",32%
same,remaining binding at 1 µM,"KIT(L576P); @1000nM, read-out: %Control",64%
same,remaining binding at 1 µM,KIT(L576P); read-out: %Control @1000nM,64%
same,remaining binding at 1 µM,"KIT-autoinhibited; @1000nM, read-out: %Control",94%
same,remaining binding at 1 µM,KIT-autoinhibited; read-out: %Control @1000nM,94%
same,remaining binding at 1 µM,"PDGFRB; @1000nM, read-out: %Control",87%
same,remaining binding at 1 µM,PDGFRB; read-out: %Control @1000nM,87%
same,remaining binding at 1 µM,"SRMS; @1000nM, read-out: %Control",32%
same,remaining binding at 1 µM,SRMS; read-out: %Control @1000nM,32%
same,difference in %Control versus compound Ib at 1 µM,SYK; @1000nM,9%
same,remaining binding at 1 µM,"SYK; @1000nM, read-out: %Control",100%
same,remaining binding at 1 µM,SYK; read-out: %Control @1000nM,100%
same,remaining binding at 1 µM,"YES; @1000nM, read-out: %Control",25%
same,remaining binding at 1 µM,YES; read-out: %Control @1000nM,25%
